“And” between values parts separate entries of the source, which are not always exact repeats. Equal values may be shown once.
Key:
[1] = test system: healthy human skin transplanted onto beige-SCID mice; experiment: Humanized psoriasis model: healthy human skin xenotransplants on beige-SCID mice injected with psoriatic patients' PBMCs; assay type: in vivo, mouse; conditions: for Healthy Skin (number of grafts) / Psoriasiform Skin (number of affected grafts, histological evaluation) / Total No. of Healthy Grafts (%) / Partial Psoriasiform With Tendency Towards Healthy skin (number of grafts): 28 days after start of treatment; for proliferation index (% Ki-67 positive cells) in the xenografted skin: vs vehicle treated group; for Epidermal thickness of grafts, Mean: mean of 9-10 mice, PBS mean 682
Text: In this model, psoriasis is induced in xenotransplants of healthy human skin transplanted onto beige severe combined immunodeficiency (SCID) mice followed by intradermal (i.d.) injection of IL-2 enriched Peripheral Blood Mononuclear Cells (PBMCs) isolated from blood of psoriasis patients (Nickoloff, 1995; Wrone-Smith, 1996 Gilhar et al., 2002, 2006, 2011). The activity of these compounds was compared to that of Enbrel, a TNF inhibitor which is an approved biological drug for treatment of psoriasis. As a control for model robustness, we used dexamethasone, a steroid with suppressive effects on inflammatory cytokines and chemokines such as TNF-alpha and interferon-gamma which cause severe psoriasis. All treatments were administered intradermally, except for dexamethasone which was given topically.
Study Protocol: A) Healthy human skin pieces with a width of 0.4 mm and surface area of 1.5×1.5 cm were provided from residual skin of routine plastic surgery procedures from the Plastic Surgery Department of the Rambam Medical Center, Israel. In addition, 20 mL blood samples were taken from psoriatic patients. B) Seventy (70) beige-severe combined immunodeficient mice (SCID) (weight˜20-25 g) were included in this study. Normal healthy human donor skin was transplanted onto the beige-SCID mice as previously described (Nickoloff et al., 1995; Wrone-Smith, 1996; Gilhar et al., 2002, 2006, 2011; Kalish et al., 2009) and the mice were divided into 7 groups. C) Peripheral Blood Mononuclear Cells (PBMCs) isolated from psoriatic patients' blood were cultured in the presence of IL-2 [Prospec, 100 U/mL of RPMI 1640 media, 10% human AB serum (Sigma, St. Louis, Mo.), 1% glutamine, 1% antibiotics (media components; Biological Industries, Kibbutz Beit Haemeck, Israel)] for 14 days, as previously described (Gilhar et al, 2002). D) Four weeks following engraftment, each mouse was injected intra-dermally (i.d.) into the grafted skin lesion, with 1×10^7 activated allogeneic enriched PBMCs from psoriatic patients (FIG. 20). Cells from different psoriasis patients were equally distributed between treatment groups so that each patient is represented in each treatment group. E) On the day of PBMCs injection into the skin grafts, mice were divided randomly into treatment groups (n=9-10 mice per group) and administration of all drugs started (FIG. 20). All tested compounds including the vehicle were given intradermally (intralesional), three times a week, except for dexamethasone which was given topically for 14 consecutive days (Table 3).
F) Twenty eight days after starting the injections and treatment, skin was harvested (FIG. 20). Grafts were analyzed for the following psoriatic parameters by histology: epidermal thickening (acanthosis), suprapapillary epidermal thinning (papillomatosis), hyperkeratosis, parakeratosis, orthokeratosis, agranulosis-hypogranulosis, appearance of neutrophils in the upper spinous layer or in the corneal cell layer—Munro microabscess, regular elongation of rete ridges, angiogenesis, edema and dilated tortuous blood vessels in the dermal papilla and mononuclear cell infiltrate in the papillary dermis. Epidermal thickness was measured as detailed below, and HLA-DR, ICAM-1, Ki-67 and immune infiltrates (anti-CD3 stain) were evaluated by immunohistochemistry (IHC).
The entire skin graft was excised and placed in 10% formal saline overnight. Then, the specimens were place in 70% ethanol and were embedded according to the standard H&E protocol. Histological assessment of the skin grafts was performed by light microscopy and evaluated by two blinded observers [the second observer evaluated random slides (about 25% of all slides) to compare the data obtained by the first observer. […] Epidermal thickness was determined with an ocular micrometer at a minimum of 50 points along the epidermis selected to represent points of maximal and minimal thickness.
Representative grafts were allocated for IHC analysis. […]

[2] = test system: PBMCs from MS patients; experiment: MS patients' PBMCs: proliferation and cytokine secretion; assay type: cell-based, human
Method: PBMCs were taken from eight MS patients with diagnosed relapsing-remitting disease who have experienced a relapse 1-2 days prior to blood drawing.
PBMCs were plated in a flat-bottom 96-well plate at 1e6 cells/well. The cells were cultured in the presence of anti-CD3 (0.5 ug/ml), MS-specific peptide MBP85-96 (10 ug/ml), or tetanus toxoid peptide TT830-843 (10 ug/ml). C1ORF32 ECD-Fc (SEQ ID NO: 43) or Control Ig were added to the cuture at the indicated concentrations. Two replicate plates were set to study for the effect of C1ORF32 ECD-Fc (SEQ ID NO: 43) on proliferation and on pro-inflammatory and anti-inflammatory cytokines secretion. To test for proliferation, the cultures were pulsed on day +1 of culture with 1 uCi of tritiated thymidine and then harvested 3 days later on day +4 of culture. For cytokine analysis, super natantes from a replicate cultures were collected on day +4 of culture and tested using Millipore multiplex assay.

[3] = test system: co-cultures of TcK and macrophages; experiment: TcK : macrophage co-culture, cytokine secretion; assay type: cell-based, human
Method: • Purified CD4+ cells (2×10^6 cells/ml) are activated for 6 days in complete medium containing IL-15 (100 ng/ml), IL-6 (100 ng/ml) and TNFα (25 ng/ml).
After 6 days in culture, T cells are washed 3 times in complete medium and counted
TcKs are added to macrophage culture following removal of existing culture media at […] (5×10^4 cells/well/CD4+ T cells plus 2×10^5 cells/well CD14^+ Macrophages). C1ORF32 ECD-Fc (SEQ ID NO:43) or Control IgG are added at 1, 3, 10, 30 μg/ml. For additional controls co-cultures are added with vehicle or with medium only (Wennink et al., 2012).
After 24 hrs of culture, cytokines (IL-10, IFN-α, IL-6, IL-12, CCL5, IL-13, IL-15, IL-17, CCL3, GM-CSF, IFNγ, TNFα, IL-1RA, IL-7, IL-1B, eotaxin, IL-2 IL-4 and IL-2R) are analyzed using ELISA and/or Luminex
Co-culture of TcK with autologeuos ex-vivo differentiated macrophages mimics one of the crucial pathways mediating synovial macrophage activation in RA thus serving as a translational tool for evaluating the therapeutic potential of drug candidates. Therefore the effect of C1ORF32 ECD-Fc (SEQ ID NO:43) was tested on the secretion of a range of pro-inflammatory and anti-inflammatory cytokines in such co-cultures. Two studies were carried out, one in which buffy coats from healthy volunteers was used and another study in which the responses of RA patients blood cells responses were compared to that of healthy voluntiers in which blood was used rather than buffy coats.

[4] = PBMCs activated ex-vivo with MBP85-96
[5] = healthy volunteers, 24 hrs co-culture

## C1ORF32 ECD-Fc (SEQ ID NO: 43): fusion protein of human C1ORF32 ECD fused to human immunoglobulin Fc (human-human fusion protein)
[1]
  Healthy Skin (number of grafts): 5/9
  Psoriasiform Skin (number of affected grafts, histological evaluation): 4/9
  Total No. of Healthy Grafts (%): 55.5% and 55%
  Epidermal thickness of grafts, Mean: 508 μm
[1]; IHC of representative grafts
  expression of HLA-DR, ICAM-1 and Ki-67 (IHC): decreased expression
[1]; IHC, vs PBS treated group
  infiltration of T cells (CD3 positive cells): decreased infiltration of T cells
[1]; IHC
  proliferation index (% Ki-67 positive cells) in the xenografted skin: trend towards decrease in proliferation index
[1]; IHC, listed as C1ORF ECD-Fc (SEQ ID NO:43)
  proliferation index (% Ki-67 positive cells) in the xenografted skin: most pronounced reduction
[1]; Source of graft (Patient) A
  Epidermal thickness of graft: 904 μm
[1]; Source of graft (Patient) B
  Epidermal thickness of graft: 397 μm
[1]; Source of graft (Patient) C
  Epidermal thickness of graft: 603 μm
[1]; Source of graft (Patient) D
  Epidermal thickness of graft: 441 μm
[1]; Source of graft (Patient) E
  Epidermal thickness of graft: 335 μm
[1]; Source of graft (Patient) G1
  Epidermal thickness of graft: 598 μm
[1]; Source of graft (Patient) G2
  Epidermal thickness of graft: 775 μm
[1]; Source of graft (Patient) H
  Epidermal thickness of graft: 253 μm
[1]; Source of graft (Patient) K
  Epidermal thickness of graft: 268 μm
[1]; one-tailed t-Test, listed as C1ORF ECD-Fc (SEQ ID NO:43)
  epidermal thickness compared with the vehicle-treated group: significant reduction in epidermal thickness
[2]; [4]
  IFNg, IL-17, TNFa secretion: inhibition
  IL-4, IL-10, TGFβ and IL-6 secretion: increase
  cell proliferation: inhibition of cells proliferation
[2]; absence of activation
  proliferation, or secretion of IFNg, IL-17, and TNFa: no effect
[2]; absence of activation, in some of the donors
  IL-10, IL-4, TGFβ and IL-6: elevation
[3]; RA patients' (n=2) and healthy volunteers blood (n=1) samples
  TNFa secretion: marked inhibition
[3]; [5]
  IL-10, IL-15, IFNa, IL-7 secretion levels: No effect
  secretion of IFNg, IL-1RA, IL-17, IL-12, IL-13, IL-6 and IL-2R: to a lesser extent also downregulated
  secretion of TNFa, CCL5, CCL3, GM-CSF, and IL-5: inhibited

## C[C@@H]1C[C@H]2[C@@H]3CCC4=CC(=O)C=C[C@]4(C)[C@@]3(F)[C@@H](O)C[C@]2(C)[C@@]1(O)C(=O)CO [dexamethasone]
[1]
  Healthy Skin (number of grafts): 7/10
  Partial Psoriasiform With Tendency Towards Healthy skin (number of grafts): 1
  Psoriasiform Skin (number of affected grafts, histological evaluation): 2 and 2/10
  Total No. of Healthy Grafts (%): 70%
  Epidermal thickness of grafts, Mean: 315 μm
[1]; listed as Dexa
  Partial Psoriasiform With Tendency Towards Healthy skin (number of grafts): 1/10
  Psoriasiform Skin (number of affected grafts, histological evaluation): 2/10
[1]; Source of graft (Patient)
  Epidermal thickness of graft: 204 μm
[1]; Source of graft (Patient) A
  Epidermal thickness of graft: 359 μm
[1]; Source of graft (Patient) B
  Epidermal thickness of graft: 596 μm
[1]; Source of graft (Patient) C
  Epidermal thickness of graft: 183 μm
[1]; Source of graft (Patient) D
  Epidermal thickness of graft: 377 μm
[1]; Source of graft (Patient) E
  Epidermal thickness of graft: 391 μm
[1]; Source of graft (Patient) G1
  Epidermal thickness of graft: 266 μm
[1]; Source of graft (Patient) H
  Epidermal thickness of graft: 262 μm
[1]; Source of graft (Patient) K
  Epidermal thickness of graft: 289 μm
[1]; Source of graft (Patient) P
  Epidermal thickness of graft: 232 μm

— US20170275344A1, “POLYPEPTIDES AND USES THEREOF AS A DRUG FOR TREATMENT OF AUTOIMMUNE DISORDERS” (Compugen Ltd., priority 2014, published 2017)
